pIC50: −log10 of the molar value. Structures can show the parent of a compound that is named as a salt.
Tests used:
TBK1 = target: T1, TBK1 (Homo sapiens, UniProt Q9UHD2); assay: TBK biochemical assay; settings: 10 point 1:4 dose response, 30 uM top concentration, 90 min at 25° C., LabChip EZ Reader II; read-out: TBK1_IC50
T1 sequence (Q9UHD2 1-729): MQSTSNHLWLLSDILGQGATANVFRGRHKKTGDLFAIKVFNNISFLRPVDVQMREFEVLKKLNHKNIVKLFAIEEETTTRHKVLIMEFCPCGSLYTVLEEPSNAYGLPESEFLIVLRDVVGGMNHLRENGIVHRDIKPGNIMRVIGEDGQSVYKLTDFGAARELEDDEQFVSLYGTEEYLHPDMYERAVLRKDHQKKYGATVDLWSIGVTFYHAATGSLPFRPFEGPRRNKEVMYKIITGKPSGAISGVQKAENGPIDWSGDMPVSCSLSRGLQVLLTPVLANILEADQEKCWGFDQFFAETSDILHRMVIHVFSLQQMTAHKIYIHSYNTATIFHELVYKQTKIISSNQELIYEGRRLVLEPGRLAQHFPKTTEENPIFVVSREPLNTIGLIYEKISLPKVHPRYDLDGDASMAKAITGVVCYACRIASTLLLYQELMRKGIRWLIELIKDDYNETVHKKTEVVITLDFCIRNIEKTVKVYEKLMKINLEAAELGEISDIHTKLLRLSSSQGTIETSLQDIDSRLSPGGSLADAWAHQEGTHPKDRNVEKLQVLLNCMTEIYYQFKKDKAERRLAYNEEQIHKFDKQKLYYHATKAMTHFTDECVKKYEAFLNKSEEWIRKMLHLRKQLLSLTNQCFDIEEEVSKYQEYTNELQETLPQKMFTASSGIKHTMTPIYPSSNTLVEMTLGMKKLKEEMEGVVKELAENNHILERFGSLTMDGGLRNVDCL
How it was run: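 Read-out was a Caliper LabChip mobility-shift assay, run after a 90-min, 25 °C reaction of TBK1 with substrate and compounds, quenched with stop buffer. Control wells received staurosporine at 10 uM final.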

IKKε = target: T2, IKKε (Homo sapiens, UniProt Q14164); assay: IKKε biochemical assay; settings: 10 point 1:4 dose response, 30 uM top concentration, 90 min at 25° C., LabChip EZ Reader II; read-out: IKKε_IC50
T2 sequence (Q14164 1-716): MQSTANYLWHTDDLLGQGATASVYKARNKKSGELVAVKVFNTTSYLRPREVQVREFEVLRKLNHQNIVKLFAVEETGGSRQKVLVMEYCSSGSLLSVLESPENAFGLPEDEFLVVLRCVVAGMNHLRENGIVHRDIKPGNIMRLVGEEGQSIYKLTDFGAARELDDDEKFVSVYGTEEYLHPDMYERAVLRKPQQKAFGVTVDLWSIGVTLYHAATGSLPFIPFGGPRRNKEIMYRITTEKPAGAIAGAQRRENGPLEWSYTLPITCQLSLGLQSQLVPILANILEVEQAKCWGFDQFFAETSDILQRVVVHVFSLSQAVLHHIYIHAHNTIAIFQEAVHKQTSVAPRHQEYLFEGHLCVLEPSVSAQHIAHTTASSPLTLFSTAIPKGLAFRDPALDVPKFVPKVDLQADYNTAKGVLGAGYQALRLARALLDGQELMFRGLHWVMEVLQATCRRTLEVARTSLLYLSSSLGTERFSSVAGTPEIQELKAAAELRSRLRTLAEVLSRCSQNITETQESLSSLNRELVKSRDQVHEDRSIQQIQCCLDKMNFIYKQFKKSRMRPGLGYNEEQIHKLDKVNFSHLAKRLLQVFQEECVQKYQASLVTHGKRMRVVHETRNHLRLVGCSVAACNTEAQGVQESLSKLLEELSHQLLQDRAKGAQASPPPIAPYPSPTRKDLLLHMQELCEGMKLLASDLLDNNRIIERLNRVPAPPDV
How it was run: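 Mobility-shift LabChip read-out followed a 90 min, 25° C. reaction of IKKε with substrate and test compound, with DMSO held at 1% final. Reactions were ended with stop buffer. Wells with 10 uM final staurosporine defined complete inhibition, and DMSO-only wells the uninhibited level.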

| pIC50 (TBK1) | pIC50 (IKKε) | Compound |
| --- | --- | --- |
| > 7.00 | > 7.00 | COc1nc(Nc2ncc(F)c(-c3ccc(OC4CCN(C(=O)C(C)O)CC4(F)F)c(C#N)c3)n2)ccc1C1CCN(C2COC2)CC1 (centres unmarked) [Example 294, 2-{[33-difluoro-1-(2-hydroxypropanoyl)piperidin-4-yl]oxy}-5-[5-fluoro-2-({6-methoxy-5-[1-(oxetan-3-yl)piperidin-4-yl]pyridin-2-yl}amino)pyrimidin-4-yl]benzonitrile] |
| > 7.00 | > 7.00 | COc1nc(Nc2nccc(-c3ccc(O[C@@H]4CCN(C(=O)[C@H](C)O)CC4(F)F)c(C#N)c3)n2)ccc1N1CCN(C2COC2)[C@@H](C)C1 [Example 248, 2 2-[(R)-3,3-Difluoro-1-((S)-2-hydroxy-propionyl)-piperidin-4-yloxy]-5-{2-[6-methoxy-5-((S)-3-methyl-4-oxetan-3-yl-piperazin-1-yl)-pyridin-2-ylamino]-pyrimidin-4-yl}-benzonitrile] |
| > 7.00 | > 7.00 | CCOc1nc(Nc2nccc(-c3ccc(OC4CCN(C(=O)[C@H](C)O)CC4(F)F)c(C#N)c3)n2)ccc1N1CCN(C2COC2)CC1 (stereo partly drawn) [Example 249, 2-([33-difluoro-1-[(2S)-2-hydroxypropanoyl]piperidin-4-yl]oxy)-5-[2-([6-ethoxy-5-[4-(oxetan-3-yl)piperazin-1-yl]pyridin-2-yl]amino)pyrimidin-4-yl]benzonitrile] |
| > 7.00 | > 7.00 | C[C@H](O)C(=O)N1CCC(Oc2ccc(-c3ccnc(Nc4ccncc4)n3)cc2C#N)C(F)(F)C1 (stereo partly drawn) [Example 207, 2-([3,3-difluoro-1-[(2S)-2-hydroxypropanoyl]piperidin-4-yl]oxy)-5-[2-[(pyridin-4-yl)amino]pyrimidin-4-yl]benzonitrile] |
| > 7.00 | > 7.00 | C[C@@H](O)C(=O)N1CCC(Oc2ccc(-c3ccnc(Nc4ccc(N5CCN(C6COC6)CC5)cc4)n3)cc2C#N)C(F)(F)C1 (stereo partly drawn) [Example 141, 2-([3,3-difluoro-1-[(2R)-2-hydroxypropanoyl]piperidin-4-yl]oxy)-5-[2-([4-[4-(oxetan-3-yl)piperazin-1-yl]phenyl]amino)pyrimidin-4-yl]benzonitrile] |
| < 5.30 | 5.30 to 6.00 | CN1CCN(c2ccc(Nc3nccc(-c4ccc(OC5CCN(C)C5)c(C#N)c4)n3)nc2)CC1 (centres unmarked) [Example 82, 5-(2-[[5-(4-methylpiperazin-1-yl)pyridin-2-yl]amino]pyrimidin-4-yl)-2-[(1-methylpyrrolidin-3-yl)oxy]benzonitrile hydrochloride] |
| 6.00 to 7.00 | 6.00 to 7.00 | COc1cc(Nc2nccc(-c3ccc(OC4CCOCC4)c(C#N)c3)n2)ncc1C(=O)N(C)C [Example 49, 6-([4-[3-cyano-4-(oxan-4-yloxy)phenyl]pyrimidin-2-yl]amino)-4-methoxy-N,N-dimethylpyridine-3-carboxamide] |
| > 7.00 | > 7.00 | COc1nc(Nc2nccc(-c3ccc(OC4CCN(C(=O)CC#N)CC4(F)F)c(C#N)c3)n2)ccc1N1CCN(C2COC2)CC1 (centres unmarked) [Example 253, 2-[1-(2-Cyano-acetyl)-3,3-difluoro-piperidin-4-yloxy]-5-{2-[6-methoxy-5-(4-oxetan-3-yl-piperazin-1-yl)-pyridin-2-ylamino]-pyrimidin-4-yl}-benzonitrile] |
| > 7.00 | > 7.00 | COc1nc(Nc2nccc(-c3ccc(OC4CCN(C(=O)[C@H](C)O)CC4(F)F)c(C#N)n3)n2)ccc1N1CCN(C2COC2)CC1 (stereo partly drawn) [Example 304, 3-([3,3-difluoro-1-[(2S)-2-hydroxypropanoyl]piperidin-4-yl]oxy)-6-[2-([6-methoxy-5-[4-(oxetan-3-yl)piperazin-1-yl]pyridin-2-yl]amino)pyrimidin-4-yl]pyridine-2-carbonitrile] |
| > 7.00 | > 7.00 | N#Cc1cc(-c2ccnc(Nc3ccc(C4CCN(C5COC5)C4)cc3)n2)ccc1OC1CCNCC1(F)F (centres unmarked) [Example 155, 2-(3,3-Difluoro-piperidin-4-yloxy)-5-{2-[4-(1-oxetan-3-yl-pyrrolidin-3-yl)-phenylamino]-pyrimidin-4-yl}-benzonitrile hydrochloride] |
| > 7.00 | > 7.00 | COc1nc(Nc2nccc(-c3ccc(OC4CCOC4)c(C#N)n3)n2)ccc1C(=O)N(C)C (centres unmarked) [Example 68, 6-([4-[6-cyano-5-(oxolan-3-yloxy)pyridin-2-yl]pyrimidin-2-yl]amino)-2-methoxy-N,N-dimethylpyridine-3-carboxamide] |
| > 7.00 | > 7.00 | COc1nc(Nc2nccc(-c3ccc(OC4CCOCC4)c(C#N)c3)n2)ccc1C(=O)N1CCC(C(=O)O)CC1 [Example 13] |
| > 7.00 | > 7.00 | COc1nc(Nc2nccc(-c3ccc(OC4CCN(C(=O)[C@H](C)O)CC4(F)F)c(C#N)c3)n2)ccc1C(=O)N(C)C (stereo partly drawn) [Example 324, 6-([4-[3-cyano-4-([3,3-difluoro-1-[(2S)-2-hydroxypropanoyl]piperidin-4-yl]oxy)phenyl]pyrimidin-2-yl]amino)-2-methoxy-N,N-dimethylpyridine-3-carboxamide] |
| > 7.00 | > 7.00 | C[C@@H](O)C(=O)N1CC[C@H](Oc2ccc(-c3ccnc(Nc4ccc(N5CCN(C6COC6)CC5)cc4)n3)cc2C#N)C(F)(F)C1 [Example 142, 2-[[(4S)-3,3-difluoro-1-[(2R)-2-hydroxypropanoyl]piperidin-4-yl]oxy]-5-[2-([4-[4-(oxetan-3-yl)piperazin-1-yl]phenyl]amino)pyrimidin-4-yl]benzonitrile] |
| > 7.00 | > 7.00 | COc1nc(Nc2nccc(-c3ccc(O[C@H]4CCN(C(=O)[C@H](C)O)C[C@H]4F)c(C#N)c3)n2)ccc1C1CCN(C2COC2)CC1 [Example 191, 2-[(3R,4S)-3-Fluoro-1-((S)-2-hydroxy-propionyl)-piperidin-4-yloxy]-5-[2-(2-methoxy-1′-oxetan-3-yl-1′,2′,3′4′,5′,6′-hexahydro-[3,4′]bipyridinyl-6-ylamino)-pyrimidin-4-yl]-benzonitrile] |
| 6.00 to 7.00 | 6.00 to 7.00 | COc1cc(C(=O)N(C)C)ncc1Nc1nccc(-c2ccc(NC3CCOCC3)c(C#N)c2)n1 [Example 61, 5-[(4-[3-cyano-4-[(oxan-4-yl)amino]phenyl]pyrimidin-2-yl)amino]-4-methoxy-N,N-dimethylpyridine-2-carboxamide] |
| > 7.00 | > 7.00 | N#Cc1cc(-c2ccnc(Nc3cccc(C4CCN(C5COC5)CC4)c3)n2)ccc1OC1CCN(C(=O)CO)CC1(F)F (centres unmarked) [Example 223, 2-[3,3-Difluoro-1-(2-hydroxy-acetyl)-piperidin-4-yloxy]-5-{2-[3-(1-oxetan-3-yl-piperidin-4-yl)-phenylamino]-pyrimidin-4-yl}-benzonitrile] |
| > 7.00 | > 7.00 | COc1nc(Nc2nccc(-c3ccc(O[C@@H]4CCN(C(=O)[C@H](C)O)C[C@@H]4F)c(C#N)c3)n2)ccc1N1CCN(C2COC2)CC1 [Example 118, 2-[(3S,4R)-3-Fluoro-1-((S)-2-hydroxy-propionyl)-piperidin-4-yloxy]-5-{2-[6-methoxy-5-(4-oxetan-3-yl-piperazin-1-yl)-pyridin-2-ylamino]-pyrimidin-4-yl}-benzonitrile] |
| 6.00 to 7.00 | > 7.00 | COc1cc(Nc2nccc(-c3ccc(OC4CCOCC4)c(C#N)c3)n2)ncc1C1CCN(C)CC1 [Example 59, 5-(2-[[4-methoxy-5-(1-methylpiperidin-4-yl)pyridin-2-yl]amino]pyrimidin-4-yl)-2-(oxan-4-yloxy)benzonitrile hydrochloride] |

From patent US20230019491A1, “PYRIMIDINE TBK/IKKe INHIBITOR COMPOUNDS AND USES THEREOF” (Merck Patent GmbH, priority 2017, published 2023)
